{"source": "paper PMC3842171", "about": "(Bioorganic & medicinal chemistry letters, 2011)", "key": {"HDAC1, HDAC3, and HDAC6": {"test_system": "HDAC1, HDAC3, and HDAC6", "assay": "Single-concentration isoform selectivity screen with Fluor de Lys kit", "assay_type": "biochemical"}, "[1]": {"test_system": "HDAC activity (HeLa cell lysates)", "assay": "Fluor de Lys in vitro fluorescence HDAC activity assay using HeLa cell lysates", "assay_type": "biochemical"}}, "data": [{"smiles": "O=C(CC(CCCCC(=O)Nc1ccccc1)c1ccccc1)NO", "note": "(stereo not shown) [Compound 1b]", "values": [{"measurement": "isoform preference in single-concentration screen", "setting": "HDAC1, HDAC3, and HDAC6; 32 µM", "value": "preference for HDAC6 over HDAC3"}]}, {"smiles": "C=CC(CCCCC(=O)Nc1ccccc1)CC(=O)NO", "note": "(stereo not shown) [Compound 1d]", "values": [{"measurement": "isoform preference in single-concentration screen", "setting": "HDAC1, HDAC3, and HDAC6; 32 µM", "value": "preference for HDAC6 over HDAC3"}]}, {"smiles": "CC(CCCCC(=O)Nc1ccccc1)CC(=O)NO", "note": "(stereo not shown) [Compound 1e]", "values": [{"measurement": "fold less potent than SAHA", "setting": "[1]; IC50 ratio versus SAHA", "value": 4, "unit": "fold"}, {"measurement": "isoform preference in single-concentration screen", "setting": "HDAC1, HDAC3, and HDAC6; 375 nM", "value": "slight preference for HDAC1 over HDAC3 and HDAC6"}]}, {"smiles": "CCCCC(CCCCC(=O)Nc1ccccc1)CC(=O)NO", "note": "(stereo not shown) [Compound 1a, C3-n-butyl SAHA]", "values": [{"measurement": "isoform preference in single-concentration screen", "setting": "HDAC1, HDAC3, and HDAC6; 32 µM", "value": "preference for HDAC6 over HDAC3"}]}, {"smiles": "CCC(CCCCC(=O)Nc1ccccc1)CC(=O)NO", "note": "(stereo not shown) [Compound 1c]", "values": [{"measurement": "fold decreased activity compared to the methyl analogue 1e", "setting": "[1]", "value": 91, "unit": "fold"}, {"measurement": "isoform preference in single-concentration screen", "setting": "HDAC1, HDAC3, and HDAC6; 32 µM", "value": "greater potency for HDAC6 over HDAC1 and HDAC3"}]}]}
